From PubChem BioAssay (NCI)
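At the GI50, growth is halved. TGI marks complete inhibition of growth.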

Assays:
Test in all cases: growth of human tumour cells (NCI), 384-well format
[1] = test system: NCI-H322M lung
[2] = test system: BT-549 breast
[3] = test system: MDA-MB-231 breast
[4] = test system: SK-MEL-28 melanoma
[5] = test system: ACHN renal
[6] = test system: HS 578T breast
[7] = test system: HCT-15 colon
[8] = test system: RPMI-8226 leukemia
[9] = test system: NCI-H522 lung
[10] = test system: NCI/ADR-RES ovarian
[11] = test system: SN12C renal
[12] = test system: KM12 colon
[13] = test system: PC-3 prostate
[14] = test system: K-562 leukemia
[15] = test system: DU-145 prostate
[16] = test system: MDA-MB-468 breast
[17] = test system: MOLT-4 leukemia
[18] = test system: U251 glioblastoma
[19] = test system: OVCAR-3 ovarian
[20] = test system: CAKI-1 renal
[21] = test system: MCF7 breast
[22] = test system: SR leukemia
[23] = test system: HOP-62 NSCLC
[24] = test system: LOX IMVI melanoma
[25] = test system: SK-MEL-2 melanoma
[26] = test system: HOP-92 NSCLC

COc1ccccc1S(=O)(=O)Nc1ccc2c(c1)CN(C)C(=O)N2
TGI [1]: > 100000 nM | GI50 [2]: < 10 nM | TGI [2]: 32.4 nM | GI50 [3]: 32.4 nM | TGI [3]: > 100000 nM | GI50 [4]: < 10 nM | TGI [4]: > 100000 nM | GI50 [5]: 15.3 nM | TGI [5]: > 100000 nM | GI50 [6]: < 10 nM | TGI [6]: 19.2 nM | GI50 [7]: 12.6 nM | TGI [7]: 46.9 nM | GI50 [8]: 19.5 nM | TGI [8]: 37.3 nM | GI50 [9]: < 10 nM | TGI [9]: < 10 nM | GI50 [10]: 12 nM | TGI [10]: 27.1 nM | GI50 [11]: 24.7 nM | TGI [11]: > 100000 nM | GI50 [12]: 18.8 nM | TGI [12]: 71.4 nM | GI50 [13]: < 10 nM | TGI [13]: > 100000 nM | GI50 [14]: < 10 nM | TGI [14]: 18 nM | GI50 [15]: 20.2 nM | TGI [15]: 58.1 nM | GI50 [16]: 17.1 nM | TGI [16]: 34.7 nM | GI50 [17]: < 10 nM | TGI [17]: 19.5 nM | GI50 [18]: 26.7 nM | TGI [18]: 82.2 nM | GI50 [19]: 12 nM | TGI [19]: 33.2 nM | GI50 [20]: < 10 nM | TGI [20]: > 100000 nM | GI50 [21]: 35.9 nM | TGI [21]: 12300 nM | GI50 [22]: < 10 nM | TGI [22]: < 10 nM | GI50 [23]: 20.8 nM | TGI [23]: > 100000 nM | GI50 [24]: 21.3 nM | TGI [24]: 87.1 nM | GI50 [25]: 18.1 nM | TGI [25]: 39.3 nM | GI50 [26]: < 10 nM | TGI [26]: 66800 nM
